The text below walks through data of publication PMC6306559 (Pharmacology Research & Perspectives, 2018).

Read-outs that look alike come from different tables or passages of the source.

Experiment [1] deals with α1A‐AR expressing COS‐7 cells. The experiment can be described thus: Phenylephrine-induced CRE reporter assay. It counts as cell-based. The conditions noted are these: 0.1 μmol/L phenylephrine; for Effect of inhibitor on diazepam modulation of phenylephrine‐stimulated CRE response / Cotreatment with diazepam, effect on phenylephrine CRE response: 50 μmol/L diazepam; for Modulation of phenylephrine CRE response by PDE inhibitor: IBMX 500 μmol/L, rolipram 10 μmol/L. The procedure:
(§1) cAMP response element (CRE) response assays were performed as previously described by transfecting WT α1A‐ and α1B‐AR stably expressing COS‐7 cells, parental COS‐7 cells or parental HEK293T cells, with a β‐galactosidase expression plasmid under the control of the CRE promoter.10 CRE reporter‐transfected cells were seeded into 96‐well culture plates for 24 hours before treatment with various compounds for 6 hours at 37°C 5% CO2. Media was aspirated, and the cells frozen at −80°C for at least 24 hours before measurement of cellular β‐galactosidase expression using chlorophenol red‐β‐D‐galactopyranoside. Ligands were made up in 0.5% FBS DMEM media. […] HEK293T cells transiently transfected with GPR68 and pCRE were stimulated with sodium bicarbonate‐free, low glucose DMEM, supplemented with 20 mmol/L HEPES and 0.5% FBS at pH 6.8, 7.0, 7.2, 7.4, and 7.8. The pH was adjusted at 37°C with NaOH. Cells were incubated for 6 hours at 37°C, in a room atmosphere incubator.
Nuclear magnetic resonance (NMR) data were processed in Topspin 3.5 using squared cosine‐bells in both dimensions and zero‐filled once, prior to Fourier‐transformation. All other data was analyzed with Graphpad prism 7 (San Diego, CA, USA). All error bars are standard deviation (SD) from three independent experiments. Competition binding assays were performed in duplicate wells. Curves were fit with one site nonlinear regression. For whole cell QAPB binding, the mean QAPB fluorescence intensity (MFI) of at lease 5000 cells was measured, and plotted against QAPB concentration. Values reported represent the mean and SD of at least three K d values calculated from separate measurements. Ca^2+ mobilization data were performed in triplicate wells and normalized to the peak response elicited by 3 μmol/L ionomycin. CRE assay was conducted in triplicate, and data were normalized to the response elicited by the vehicle. Curves were fitted with three variable nonlinear regressions. For GPR68 assays, responses were normalized to CRE response at pH 6.8 (100%) and pH 7.8 (0%).
On the technique in general: In a reporter assay the amount or activity of a reporter protein is the signal.

Experiment [2] relates to α1A‐AR expressing COS‐7 cells. It counts as cell-based, human. The settings on record: 10 μmol/L forskolin; for Modulation of forskolin CRE response by PDE inhibitor: IBMX 500 μmol/L, rolipram 10 μmol/L.
Experiment [3] addresses T1, WT α1B‐AR (Homo sapiens, UniProt P35368).
T1 construct: COS‐7 cells stably expressing unmodified α1B‐AR; expressed in transfected cells
T1 sequence (P35368 1-520): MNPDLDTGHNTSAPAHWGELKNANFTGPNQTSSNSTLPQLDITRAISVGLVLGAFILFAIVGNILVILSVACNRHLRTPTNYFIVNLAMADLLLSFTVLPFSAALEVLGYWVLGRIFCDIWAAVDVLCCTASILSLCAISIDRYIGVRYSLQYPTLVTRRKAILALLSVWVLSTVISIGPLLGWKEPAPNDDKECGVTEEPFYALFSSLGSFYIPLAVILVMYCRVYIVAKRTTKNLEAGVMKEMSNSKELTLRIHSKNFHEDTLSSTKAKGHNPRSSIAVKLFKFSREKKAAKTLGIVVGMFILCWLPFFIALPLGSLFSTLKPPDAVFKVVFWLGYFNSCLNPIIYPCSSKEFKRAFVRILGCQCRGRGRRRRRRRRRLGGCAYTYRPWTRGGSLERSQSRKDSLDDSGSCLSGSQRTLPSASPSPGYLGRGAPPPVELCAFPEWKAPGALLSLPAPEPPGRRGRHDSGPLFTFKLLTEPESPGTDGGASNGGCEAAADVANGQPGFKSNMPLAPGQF
In words: Intracellular Ca2+ mobilization in stably expressing COS‐7 cells. It counts as cell-based. In general terms: Calcium assays in cells follow changes in intracellular calcium, usually with a dye or a luminescent sensor.

Another experiment deals with T2, WT α1A‐AR (Homo sapiens, UniProt P35348).
T2 construct: expressed in transfected cells
T2 sequence (P35348 1-466): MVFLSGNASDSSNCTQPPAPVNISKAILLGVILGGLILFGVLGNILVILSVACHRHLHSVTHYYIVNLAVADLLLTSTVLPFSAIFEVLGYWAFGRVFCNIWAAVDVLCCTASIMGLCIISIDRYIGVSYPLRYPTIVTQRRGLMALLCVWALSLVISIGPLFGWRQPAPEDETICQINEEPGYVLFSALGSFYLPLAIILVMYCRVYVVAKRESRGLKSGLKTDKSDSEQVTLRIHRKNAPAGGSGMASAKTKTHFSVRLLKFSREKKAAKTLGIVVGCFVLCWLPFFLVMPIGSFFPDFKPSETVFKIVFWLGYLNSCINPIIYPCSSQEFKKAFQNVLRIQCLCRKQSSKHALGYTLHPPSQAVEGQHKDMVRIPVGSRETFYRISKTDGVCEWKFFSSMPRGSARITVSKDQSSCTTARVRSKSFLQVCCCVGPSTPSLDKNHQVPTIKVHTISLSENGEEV
The experiment is described as above. It counts as cell-based.

Experiment [4] relates to α1B‐AR #15. In words: QAPB competition binding at purified thermostabilized receptor on paramagnetic beads. The settings on record: 10 nmol/L QAPB, 2 hours; benzodiazepines up to 200 μmol/L.
The test system of experiment [5] is α1A‐AR A4. The settings on record: 500 μmol/L ligand, 5 μmol/L receptor in DDM, with and without 10 μmol/L prazosin; controls DDM alone and enNTS1.
Another experiment relates to guinea pig PDE‐4. The conditions noted are these: benzodiazepines unsubstituted at N‐1; cited from earlier work.
The next experiment deals with T3, GPR68 (Homo sapiens, UniProt Q15743).
T3 construct: expressed in transfected cells; host or cells: HEK293T (transient)
T3 sequence (Q15743 whole entry, species assumed): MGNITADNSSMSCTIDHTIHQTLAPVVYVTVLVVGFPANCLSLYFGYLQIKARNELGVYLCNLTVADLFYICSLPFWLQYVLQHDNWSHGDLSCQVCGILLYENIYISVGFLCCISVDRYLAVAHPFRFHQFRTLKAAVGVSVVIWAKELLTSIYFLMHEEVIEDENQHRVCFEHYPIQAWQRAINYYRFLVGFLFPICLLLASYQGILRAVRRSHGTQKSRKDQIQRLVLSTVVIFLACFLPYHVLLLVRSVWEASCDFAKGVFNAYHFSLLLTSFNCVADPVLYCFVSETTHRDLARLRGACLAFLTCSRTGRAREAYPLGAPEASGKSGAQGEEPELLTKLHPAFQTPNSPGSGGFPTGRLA
The experiment can be described thus: GPR68 pH-stimulated CRE reporter assay. It counts as cell-based. The conditions noted are these: pH 7.2; HEK293T cells transfected with GPR68. On the procedure: as §1, with “Cells were incubated for 6 hours at 37°C, in a room atmosphere incubator.” left out
Nuclear magnetic resonance (NMR) data were processed in Topspin 3.5 using squared cosine‐bells in both dimensions and zero‐filled once, prior to Fourier‐transformation. All other data was analyzed with Graphpad prism 7 (San Diego, CA, USA). […] For whole cell QAPB binding, the mean QAPB fluorescence intensity (MFI) of at lease 5000 cells was measured, and plotted against QAPB concentration. Values reported represent the mean and SD of at least three K d values calculated from separate measurements. […]

The subject of experiment [6] is α1A‐AR A4. The conditions noted are these: 10 nmol/L QAPB, 2 hours; benzodiazepines up to 200 μmol/L.
The target of experiment [7] is α1B‐AR #15. The settings on record: previously reported; read-out: K d of QAPB; cited from earlier work.
Experiment [8] has as its target T1, WT α1B‐AR. The experiment can be described thus: Whole cell QAPB saturation binding by flow cytometry. The conditions noted are these: COS‐7 cells, read-out: K d of QAPB.
Protocol: Fifty microliter of the cell suspension was added to each well of a V‐bottom 96‐well plate (Sarstead, Nümbrecht, Germany). […] To determine nonspecific binding, cells were exposed to QAPB at the same concentrations as above, but in the presence of 100 μmol/L phentolamine. The cells were incubated with ligands for 1 hour at 20°C prior to detection of bound QAPB with flow cytometry using CytoFLEX LX flow cytometer (Beckman Coulter, Brea, CA, USA).
Experiment [9] has as its target α1A‐AR A4. The conditions noted are these: previously reported; read-out: K d of QAPB; cited from earlier work.
Setting [10] is: 0 to 50 μmol/L, absence or presence of 10 nmol/L phenylephrine.
The mark [11] stands for this setting: not in untransfected COS‐7 cells.

On to `COC(=O)C1=C(C)NC(C)=C([N+](=O)[O-])[C@@H]1c1ccccc1C(F)(F)F` [(R)‐(+)‐Bay K 8644], for which the “Effect of inhibitor on diazepam modulation of phenylephrine‐stimulated CRE response” value in [1] is recorded as “had no significant effect”. In addition, the “Effect of inhibitor on diazepam modulation of forskolin‐stimulated CRE response” value in [2] (50 μmol/L diazepam) is “had no significant effect”.

As for `COc1ccc(C2CNC(=O)C2)cc1OC1CCCC1` (centres unmarked) [rolipram], in [1], the “Cotreatment with diazepam, effect on phenylephrine CRE response” value is on record as “had no additional positive modulatory effect” and the “Modulation of phenylephrine CRE response by PDE inhibitor” value is listed as “positively modulated the CRE response of phenylephrine to a similar level as diazepam”. In addition, in [2] (50 μmol/L diazepam), the “Cotreatment with diazepam versus rolipram alone, forskolin CRE response” value is reported as “significantly decreased” and the “Cotreatment with diazepam, effect on forskolin CRE response” value is given as “no additive effect was observed”. Further, the “Modulation of forskolin CRE response by PDE inhibitor” value in experiment [2] was “positively modulated the CRE response of forskolin”.

Consider `O=C1Nc2ccc(Cl)cc2C(c2ccccc2Cl)=NC1O` (centres unmarked) [lorazepam], for which the “Effect on Ca2+ mobilization” value at WT α1B‐AR [3] (setting [10]) and at WT α1A‐AR (setting [10]) was “had no effect” each time. Moreover, the QAPB displacement result in the experiment on α1B‐AR #15 [4] and in the experiment on α1A‐AR A4 [6] was “neither diazepam nor lorazepam displaced QAPB at either receptor” in each case. In addition, in the experiment with α1A‐AR A4 [5], the “STD NMR signals, interpretation” value is reported as “nonspecific interactions with detergent micelles”. Also, the “Potency relative to diazepam” value in the experiment with guinea pig PDE‐4 is on record as “less potent than diazepam”. Moreover, the “Modulation of GPR68 CRE response” value on GPR68 is given as “positively modulated the CRE response”.

Regarding `COC(=O)C1=C(C)NC(C)=C(C(=O)OC2CCCN(Cc3ccccc3)C2)C1c1cccc([N+](=O)[O-])c1` (centres unmarked) [benidipine], the “Effect of inhibitor on diazepam modulation of phenylephrine‐stimulated CRE response” value in [1] was “significantly reduced both the phenylephrine response and the diazepam modulation of the CRE response”. Moreover, the “Effect of inhibitor on diazepam modulation of forskolin‐stimulated CRE response” value in experiment [2] (50 μmol/L diazepam) is reported as “had no effect”.

In the case of `O=C1CN=C(c2ccccc2Cl)c2cc([N+](=O)[O-])ccc2N1` [clonazepam], the “Potency relative to diazepam” value with guinea pig PDE‐4 is “less potent than diazepam”.

For `Cl.NCCCCCCNS(=O)(=O)c1cccc2c(Cl)cccc12` [W‐7 hydrochloride], the “Effect of inhibitor on diazepam modulation of phenylephrine‐stimulated CRE response” value in [1] was “significantly reduced both the phenylephrine response and the diazepam modulation of the CRE response”. Also, the “Effect of inhibitor on diazepam modulation of forskolin‐stimulated CRE response” value in experiment [2] (50 μmol/L diazepam) is reported as “had no significant effect on forskolin stimulation”.

With `CNC[C@H](O)c1cccc(O)c1` [phenylephrine], the “Agonist stimulation of calcium mobilization” value at WT α1B‐AR [3] (setting [11]) and at WT α1A‐AR (setting [11]) was “stimulated calcium mobilization” each time. Moreover, the QAPB displacement result with α1B‐AR #15 [4] and with α1A‐AR A4 [6] was “displaced QAPB at both receptor subtypes” each time.

For `COc1ccc(S(=O)(=O)N(CCO)c2ccccc2CN(C)C/C=C/c2ccc(Cl)cc2)cc1` [KN‐93], the “Effect of inhibitor on diazepam modulation of phenylephrine‐stimulated CRE response” value in experiment [1] was “had no significant effect”. Further, the “Effect of inhibitor on diazepam modulation of forskolin‐stimulated CRE response” value in [2] (50 μmol/L diazepam) is given as “had no significant effect”.

As for `CC(C)Cn1c(=O)n(C)c(=O)c2[nH]cnc21` [IBMX], in experiment [1], the “Cotreatment with diazepam, effect on phenylephrine CRE response” value is recorded as “had no additional positive modulatory effect” and the “Modulation of phenylephrine CRE response by PDE inhibitor” value is listed as “positively modulated the CRE response of phenylephrine to a similar level as diazepam”. Besides, the “Cotreatment with diazepam, effect on forskolin CRE response” value in experiment [2] (50 μmol/L diazepam) was “no additive effect was observed”. Besides, in experiment [2], the “Modulation of forskolin CRE response by PDE inhibitor” value was “positively modulated the CRE response of forskolin”.

For `O=C1CN=C(c2ccccc2)c2cc([N+](=O)[O-])ccc2N1` [nitrazepam], in the experiment on guinea pig PDE‐4, the “Potency relative to diazepam” value is reported as “less potent than diazepam”.

As to `NCCOB(c1ccccc1)c1ccccc1` [2‐APB], in [1], the “Effect of inhibitor on diazepam modulation of phenylephrine‐stimulated CRE response” value is listed as “had no significant effect”. In addition, the “Effect of inhibitor on diazepam modulation of forskolin‐stimulated CRE response” value in experiment [2] (50 μmol/L diazepam) is recorded as “had no significant effect”.

As to `CN1CCc2cc3c(cc2[C@H]1[C@@H]1OC(=O)c2c1ccc1c2OCO1)OCO3` [bicuculline], the “Effect of inhibitor on diazepam modulation of phenylephrine‐stimulated CRE response” value in experiment [1] was “had no effect”. The “Effect of inhibitor on diazepam modulation of forskolin‐stimulated CRE response” value in experiment [2] (50 μmol/L diazepam) is “had no effect”.

In the case of quinazoline piperazine bodipy [QAPB], the Kd at α1B‐AR #15 [7] is 8.5 nM; at WT α1B‐AR [8] (absence of diazepam), 12 ± 3 nM; on WT α1B‐AR [8] (presence of 50 μmol/L diazepam), 20 ± 13 nM; on α1A‐AR A4 [9] it was 11.6 nM.
